This is an account of results in patent publication US8895561B2, “Compounds and methods for treating candidiasis and aspergillus infections” (Cellceutix Corporation, priority 2012, dated 2014).

What all share (format): cell-based
The subject of test [1] is C. albicans GDH2346. The test is described as follows: Candida IC50, vegetative cells, by OD600 and fluorescence. As to conditions: Candida albicans, GDH2346. In a few lines: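 Vegetative C. albicans GDH2346 in RPMI/MOPS pH 6.3 with FDGlu, an exoglucanase substrate giving fluorescent growth signal. OD600 and fluorescence read at 24 and 48 h; IC50 from the average of all four reads.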

Test [2] concerns human transformed liver HepG2 cells. In words: Cytotoxicity, MTS viability assay. As to conditions: Homo sapiens, HepG2; cytotoxicity. In a few lines:
(§1)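 Cytotoxicity in mouse 3T3 fibroblasts and human HepG2 liver cells measured by MTS viability assay. Values reported as EC50.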

Test [3] relates to mouse 3T3 fibroblasts. In words: Cytotoxicity, MTS viability assay. To be noted: Mus musculus, NIH3T3; cytotoxicity. Put shortly: as §1
For orientation: Tetrazolium dyes change colour on reduction, which living cells bring about.

For test [4], the system named is human oral keratinocyte cell line, OKF6/TERT. The test is described as follows: Cytotoxicity, MTS viability assay. Here is the method:
Candida IC50s were determined by OD600 and fluorescence from vegetative cells and by MTS viability assay in the hyphal state. MICs were determined using a broth microdilution assay under standard CLSI conditions Bacteria strains: E. coli 25922 (EC), S. aureus 27660 (SA), E. faecalis 29212 (EF), P. aeruginosa 10145 (PA), and K. pneumoniae 13883 (KP). Cytotoxicity (EC50) was determined against mouse 3T3 fibroblasts, human transformed liver HepG2 cells, and human oral keratinocyte cell line, OKF6/TERT using an MTS viability assay. Candida IC50s<10 μg/mL, MICs<5 μg/mL and cytotoxicity EC50s>100 μM are indicated in green. MICs>5 μg/mL and cytotoxicity EC50s<100 μM are indicated in red.
(§2) CLSI conditions Bacteria strains: clinical isolates; yeast strains: C. dubliniensis (NCPF3949), C. glabrata (ATCC 90030), C. krusei (ATCC 6258), C. parapsilosis (ATCC 22019), and C. tropicalis (ATCC 750). Cytotoxicity (EC50) was determined against mouse 3T3 fibroblasts, human transformed liver HepG2 cells, and human oral keratinocyte cell line, OKF6/TERT using an MTS viability assay.

Test [5] has as its system C. albicans GDH2346. The test is described as follows: Candida MIC, CLSI M27-A3. As to conditions: Candida albicans, GDH2346. Here is the method:
(§3) Candida MIC assays were determined in accordance with CLSI guidelines M27-A3 using a clinically isolated C. albicans strain, GDH2346.50% human serum was added to determine activity in the presence of serum.

In test [6] the test system is C. dubliniensis (NCPF3949). In words: Yeast MIC. To be noted: for MIC: Candida dubliniensis, NCPF3949. As for the experimental part:
as §3, §2

Test [7] relates to C. glabrata (ATCC 90030). The test is described as follows: Yeast MIC. As to conditions: for MIC: Nakaseomyces glabratus, ATCC90030. As for the experimental part:
as §3, §2

For test [8], the system named is C. krusei (ATCC 6258). In words: Yeast MIC. As to conditions: Pichia kudriavzevii, ATCC6258. Here is the method:
as §3, §2

Test [9] has as its system C. parapsilosis (ATCC 22019). The test is described as follows: Yeast MIC. To be noted: Lodderomyces parapsilosis, ATCC22019. As for the experimental part:
as §3, §2

Test [10] concerns C. tropicalis (ATCC 750). The test is described as follows: Yeast MIC. As to conditions: Candida tropicalis, ATCC750. As for the experimental part: as §3, §2
Test [11] has as its system A. viscosis. The test is described as follows: Commensal bacteria MIC, broth microdilution. As for the experimental part:
(§4) Bacterial MICs were determined using a broth microdilution assay under standard
as §2
On the technique in general: Dilution methods test growth across graded concentrations, often in twofold steps.

Test [12] has as its system S. salivarius. The test is described as follows: Commensal bacteria MIC, broth microdilution. As to conditions: Streptococcus salivarius. As for the experimental part: as §4, §2
[13] abbreviates: vegetative cells, read-out: IC50 Candida, Vegetative.
The mark [14] stands for this setting: vegetative cultures, read-out: Anti-C. albicans GDH2346 Vegetative (IC50).
The mark [15] stands for this setting: 50% human serum, read-out: MIC C. albicans GDH2346 + 50% HS.
The mark [16] stands for this setting: Table 5, read-out: MIC C. albicans.
Where [17] appears, read: without serum, read-out: MIC C. albicans GDH2346.
The mark [18] stands for this setting: 50% human serum, read-out: MIC C. dubliniensis + 50% HS.
[19] abbreviates: without serum, read-out: MIC C. dubliniensis.
[20] abbreviates: 50% human serum, read-out: MIC C. glabrata + 50% HS.
Where [21] appears, read: without serum, read-out: MIC C. glabrata.
Setting [22] is: Table 5, read-out: MIC C. dubliniensis.
Where [23] appears, read: Table 5, read-out: MIC C. glabrata.

≈ marks a conversion by molar mass, not a printed value. Like-named read-outs stand apart in the source and are kept apart here.

With `NCCCOc1cc(OCCCN)cc(-c2ccc3c(c2)c2cc(-c4cc(OCCCN)cc(OCCCN)c4)ccc2n3CCCN)c1` [Compound 135], the 50% inhibitory concentration (IC50) – broadly, the concentration needed to halve the response being measured – in test [1] (setting [13]) turned out to be 1.44 µg/mL (≈ 2.15 µM); in test [1] (setting [14]) it was 1.44 µg/mL (≈ 2.15 µM); in [2] it was 885 µM; in [3] it was 436 µM; in test [4], 766 µM. For the same compound, the MIC (usually the lowest concentration that inhibits growth of the organism) in [5] (setting [15]) came to 2 µg/mL; in test [5] (setting [16]), 4 µg/mL (≈ 5.98 µM); in [5] (setting [17]), 4 µg/mL (≈ 5.98 µM); in [6] (setting [18]), 1 µg/mL; in test [6] (setting [19]) it was 4 µg/mL (≈ 5.98 µM); in test [7] (setting [20]) it was 2 µg/mL. The MIC is 2 µg/mL (≈ 2.99 µM) in [7] (setting [21]); 16 µg/mL (≈ 23.9 µM) in test [8]; 2 µg/mL (≈ 2.99 µM) in test [9]; 2 to 4 µg/mL (≈ 2.99 to 5.98 µM) in test [10]; more than 64 µg/mL in [11]; more than 64 µg/mL in test [12]. Further, in test [6] (Table 5), the “MIC C. dubliniensis” value stood at 4 µg/mL (≈ 5.98 µM). Moreover, the “MIC C. glabrata” value in test [7] (Table 5) amounted to 2 µg/mL (≈ 2.99 µM).

For the compound `N=C(N)N1CCN(c2ccc(-c3cc(-c4ccc(N5CCN(C(=N)N)CC5)cc4)ncn3)cc2)CC1` [Compound 136], the IC50 in test [1] (Table 6, read-out: IC50 C. albicans) was found to be 1.4 µg/mL (≈ 2.89 µM); in test [1] (setting [13]), 4.24 µg/mL (≈ 8.75 µM); in test [1] (setting [14]) it was 4.24 µg/mL (≈ 8.75 µM); in test [2], 453 µM; in [3], 311 µM; in test [4], 466 µM. Further, the MIC stood at 2 µg/mL in test [5] (setting [15]); 4 µg/mL (≈ 8.25 µM) in test [5] (setting [16]); 4 µg/mL (≈ 8.25 µM) in [5] (setting [17]); 2 µg/mL in [6] (setting [18]); 8 µg/mL (≈ 16.5 µM) in test [6] (setting [19]); 1 µg/mL in test [7] (setting [20]). Also, the MIC in test [7] (setting [21]) was 4 µg/mL (≈ 8.25 µM); in test [8] it was 32 µg/mL (≈ 66 µM); in [9] it was 4 to 8 µg/mL (≈ 8.25 to 16.5 µM); in test [10] it was 4 to 8 µg/mL (≈ 8.25 to 16.5 µM); in test [11], 4 µg/mL (≈ 8.25 µM); in [12], 16 µg/mL (≈ 33 µM). For the same compound, in test [6] (Table 5), the “MIC C. dubliniensis” value was 8 µg/mL (≈ 16.5 µM). Also, the “MIC C. glabrata” value in test [7] (Table 5) worked out at 4 µg/mL (≈ 8.25 µM).

Regarding `NCCSc1cc(SCCN)c(C(F)(F)F)cc1NC(=O)c1cc(C(=O)Nc2cc(C(F)(F)F)c(SCCN)cc2SCCN)ncn1` [Compound 100], the IC50 in test [1] (setting [13]) is 4.93 µg/mL (≈ 6.53 µM); in test [1] (setting [14]), 4.93 µg/mL (≈ 6.53 µM); in test [2] it was more than 1000 µM; in [3], 439 µM; in test [4], more than 1000 µM. The MIC in test [5] (setting [16]) is 4 to 8 µg/mL (≈ 5.3 to 10.6 µM); in test [6] (setting [22]), 8 µg/mL (≈ 10.6 µM); in [7] (setting [23]), 16 µg/mL (≈ 21.2 µM); in [8], 8 µg/mL (≈ 10.6 µM); in test [9], 8 µg/mL (≈ 10.6 µM); in test [10], 4 µg/mL (≈ 5.3 µM). The MIC in [11] and in test [12] was more than 64 µg/mL in each case.

As to `NCCCOc1cc(-c2cn(-c3cc(OCCCN)cc(OCCCN)c3)nn2)cc(-c2cn(-c3cc(OCCCN)cc(OCCCN)c3)nn2)c1` [Compound 137], the half-inhibitory concentration (IC50) in test [1] (setting [13]) is 1.89 µg/mL (≈ 2.59 µM); in test [2] it was 182 µM; in test [3] it was 83 µM; in test [4] it was 42 µM. Further, the MIC is 8 µg/mL (≈ 11 µM) in [5] (setting [16]); 8 to 16 µg/mL (≈ 11 to 21.9 µM) in test [6] (setting [22]); 8 µg/mL (≈ 11 µM) in test [7] (setting [23]); 8 µg/mL (≈ 11 µM) in [8]; 4 to 8 µg/mL (≈ 5.48 to 11 µM) in [9]; 4 µg/mL (≈ 5.48 µM) in test [10]. Further, the minimal inhibitory concentration (MIC) in test [11] and in test [12] was more than 64 µg/mL each time.
